Measurements as given in patent US20240293558A1, “KRAS INHIBITOR CONJUGATES” (Erasca, Inc., priority 2021, published 2024).

Biological target: T1, KRAS 4B G12C protein (Homo sapiens, UniProt P01116, G12C)
T1 construct: made in house; host or cells: E. coli BL21
Experiment: In vitro covalent adduct formation (CAF) assay, LC-MS
Format: binding
Settings: 5 μM KRAS 4B G12C, 10 μM compound, 22° C.
Method: This Example provides a protocol for assessing covalent adduct formation (CAF) between the compounds provided herein and KRAS.
In vitro covalent adduct formation assay: Covalent adduct formation (CAF) reactions between Cys12 of the KRAS 4B G12C protein and embodiments of the application were measured in vitro using liquid chromatography-mass spectrometry (LC-MS).
Recombinant Human KRAS 4B protein containing the G12C mutation was used in compound screening experiments. This protein contained 188 amino acids in total, including an N-terminal 6-Histidine tag, followed by a Tobacco Etch Virus (TEV) tag, followed by residues 1-169 of the native KRAS 4B sequence. The exact mass of the protein was 21,310 Da as determined by mass spectrometry. […]
The recombinant protein was expressed in E. coli BL21 cells and purified using affinity chromatography via a Ni-NTA column. […] The intact mass of the protein samples was measured by LC-MS using a QExactive+mass spectrometer (Thermo Scientific). An amount of 500 ng total protein was injected onto a C8 reverse phase column, eluted with a seven-minute gradient of 30%-90% acetonitrile/0.10% formic acid, and analyzed for intact mass by the mass spectrometer. Adducts identified were confirmed to be within 1 Dalton of the expected mass, and the relative ratios of free:adduct protein were used to quantify the percentage of protein bound by the compound. […]

C=CC(=O)N1CCN(c2nc(OCCN3CCC4(CC3)CN(c3cc([C@H](C(=O)N5C[C@H](O)C[C@H]5C(=O)N[C@@H](C)c5ccc(-c6c(F)cccc6F)cc5)C(C)C)on3)C4)nc3c(F)c(-c4nc(N)cc(C)c4C(F)(F)F)c(Cl)cc23)[C@@H](C)C1 (atropisomer, axis not shown) [Example 201, (2S,4R)-1-((R)-2-(3-(7-(2-(((R)-4-((S)-4-acryloyl-2-methylpiperazin-1-yl)-7-(6-amino-4-methyl-3-(trifluoromethyl)pyridin-2-yl)-6-chloro-8-fluoroquinazolin-2-yl)oxy)ethyl)-2,7-diazaspiro[3.5]nonan-2-yl)isoxazol-5-yl)-3-methylbutanoyl)-N—((S)-1-(2′,6′-difluoro-[1,1′-biphenyl]-4-yl)ethyl)-4-hydroxypyrrolidine-2-carboxamide]
% CAF at 5 min: 98%
